Source: article PMC8910733, “Cyclin-Dependent Kinases (CDKs) and the Human Cytomegalovirus-Encoded CDK Ortholog pUL97 Represent Highly Attractive Targets for Synergistic Drug Combinations” (International Journal of Molecular Sciences, 2022)
Several values for one entry are separate records, joined by “and”; a condition that tells them apart may be missing. Equal values may be shown once. Read-outs that look alike come from different tables or passages of the source.

Columns and labels:
[1] = neutral red assay (NRA), drug-induced cytotoxicity; assay type: cell-based, human; details: human
Procedure: (§1) Drug induced cytotoxicity in HFFs was measured as a reduction of cell viability determined by neutral red uptake assay (NRA), as described previously. Briefly, HFFs treated with compounds for 7 d were incubated with a final concentration of 40 μg/mL neutral red (Sigma Aldrich, St. Louis, MO, USA) for 3 h. Incorporated neutral red was released from the cells by incubation with destaining solution (50% ethanol, 49% H2O, 1% acetic acid) and subsequently quantitated in a microplate reader (PerkinElmer, Waltham, MA, USA) by fluorescence measurement using 560/630 nm for excitation/emission, respectively.

[2] = system: mock-infected primary human foreskin fibroblasts (HFFs); assay: neutral red assay (NRA), drug-induced cytotoxicity; assay type: cell-based; details: single treatment; mock-infected HFFs, 7 d; mean ± SD
Procedure: as §1

CDK7 = assay: confocal immunofluorescence quantitation of CDK7 signal in HFFs; details: HCMV AD169-GFP-infected HFFs, 7 d; MBV 10 µM, LDC4297 0.1 µM, R25 1 µM, abemaciclib 1 µM; untreated mock-infected = 100%; mean ± SEM
HCMV AD169-GFP [3] = assay: antiviral drug treatment in cyclin H knock-out HFFs; details: CycH KO HFFs
Procedure: (§2) To achieve a transient knock-out of cyclin H, app. 1.5 × 10^5 HFFs/well were grown in 12-well culture plates and, starting the following day, incubated for 24 h with 0.5 mL of lentiviral supernatant (a mixture containing all six gRNAs described in 4.9) supplemented with 0.5 mL MEM and 7.5 µg/mL polybrene (Sigma Aldrich, St. Louis, MO, USA) per well. Virus supernatant was replaced by fresh media 24 h later and cells were used for infection experiments (see 4.5 and 4.6) on the following day.
(§3) 12-well culture plates and treated with lentiviral supernatants to achieve a CRISPR/C as9 -media ted
(§4) transient cyclin H knock-down. Subsequently, cells were dir ectly infected with HCMV AD169-GF P for
(§5) 90 min , then fresh medium, supplemented with indicated concentrations of compounds, was added. Cells
(§6) were harvested and lysed 7 d pos t-infection and vira l GFP reporter signa ls were measured in
(§7) quadruplicate. Data are presented as mean values of biological duplicates, adjusted in percent to the
(§8) respective solvent DMSO c on t r ol (ctrl ).

HCMV AD169-GFP [4] = assay: antiviral drug treatment in wild-type HFFs; details: WT HFFs
Procedure: as §2, §3, §4, §5, §6, §7, §8

HCMV AD169-GFP [5] = details: for SI: selectivity index CC50/EC50
Procedure: (§9) Primary human foreskin fibroblasts (HFFs, derived from clinical samples, Children’s Hospital, Erlangen, Germany) were grown in Eagle’s minimal essential medium (MEM) supplemented with 1 × GlutaMAX^TM (both Thermo Fisher Scientific, Waltham, MA, USA), 10 μg/mL gentamicin and 10% fetal bovine serum (FBS, Capricorn, Ebsdorfergrund, Germany). […] Cultured cells were maintained at 37 °C, 5% CO2 and 80% humidity. All cell culture was regularly monitored for absence of mycoplasma contamination (Lonza™ Mycoalert™, Thermo Fisher Scientific, Waltham, MA, USA). Recombinant HCMV AD169 expressing green fluorescent protein (AD169-GFP, [61]) and recombinant ORF-UL97-deleted HCMV AD169 expressing green fluorescent protein (ΔUL97-GFP BAC213 [48]) were used for in vitro replication assays.
(§10) Loewe additivity was assessed using an adapted protocol of the HCMV GFP-based replication assay [21, 61] described previously [1]. HFFs were seeded at app. 1.6 × 10^5 cells/well in 12-well culture plates (four plates per assay) and infected on the following day with HCMV AD169-GFP [61] in a dilution resulting in 25% GFP-positive cells at 7 d p.i. (i.e., 1× TCID25^7d). […] Standard protocol comprised a serial dilution of six concentrations/single compound, starting with app. 4–8 × EC50, and a 1:2 serial dilution of eight concentrations of the combination, starting with a combination of half of the highest concentrations of both single dilution series. All infections were performed in biological duplicates. Cells were lysed by the addition of 200 µL lysis buffer/well 7 d p.i., and cell suspensions were mixed and transferred to a 96-well plate. Centrifugation was performed at 3000 rpm for 15 min and clear lysates were subjected to automated GFP quantitation in a Victor X4 microplate reader (PerkinElmer, Waltham, MA, USA). Antiviral efficacy (mean of duplicate measurement of biological duplicates) was expressed as the percentage of solvent control and entered into the CompuSyn software (Version 1.0 [65]; ComboSyn, Inc., Paramus, NJ, USA). Only experiments with an r value > 0.90 and EC50 values close to previously determined concentrations were accepted.

HCMV AD169-GFP [6] = assay: confocal quantitation of GFP reporter signal in HFFs; details: MBV 10 µM, LDC4297 0.1 µM, R25 1 µM, abemaciclib 1 µM; untreated infected = 100%, mock = 0%
HCMV ΔUL97-GFP BAC213 = assay: GFP replication assay with deletion mutant
Procedure: Primary human foreskin fibroblasts (HFFs, derived from clinical samples, Children’s Hospital, Erlangen, Germany) were grown in Eagle’s minimal essential medium (MEM) supplemented with 1 × GlutaMAX^TM (both Thermo Fisher Scientific, Waltham, MA, USA), 10 μg/mL gentamicin and 10% fetal bovine serum (FBS, Capricorn, Ebsdorfergrund, Germany). […] Cultured cells were maintained at 37 °C, 5% CO2 and 80% humidity. All cell culture was regularly monitored for absence of mycoplasma contamination (Lonza™ Mycoalert™, Thermo Fisher Scientific, Waltham, MA, USA). […]
Loewe additivity was assessed using an adapted protocol of the HCMV GFP-based replication assay [21, 61] described previously [1]. […] Centrifugation was performed at 3000 rpm for 15 min and clear lysates were subjected to automated GFP quantitation in a Victor X4 microplate reader (PerkinElmer, Waltham, MA, USA). Antiviral efficacy (mean of duplicate measurement of biological duplicates) was expressed as the percentage of solvent control and entered into the CompuSyn software (Version 1.0 [65]; ComboSyn, Inc., Paramus, NJ, USA). Only experiments with an r value > 0.90 and EC50 values close to previously determined concentrations were accepted.

HCMV AD169-GFP [7] = assay: Loewe additivity fixed-dose assay
Procedure: as §10

HCMV AD169-GFP [8] = assay: microbe, parasite or virus in culture
Procedure: as §9, §10

[9] = mock-infected primary human foreskin fibroblasts (HFFs), single treatment, mock-infected HFFs, 7 d, mean ± SD, read-out: CC50
[10] = Human betaherpesvirus 5, AD169, single treatment, HCMV AD169-GFP in HFFs, mean ± SD

Compound: CC(=O)N[C@@H]1CCC[C@H](C(=O)Nc2cc(-c3cnn4c3CC(C)(C)C4)c(Cl)cn2)C1 [AZD4573]
- CC50 at 7 d [1, 9]: 350 ± 90 nM

Compound: CC[C@H](Nc1nc(NCc2cnc(C)cc2C)c2ncn(C(C)C)c2n1)[C@@H](C)O [CYC065]
- CC50 at 7 d [1, 9]: < 100 nM

Compound: CC(C)c1cnn2c(NCc3ccccc3-n3cccn3)nc(OC3CCCNC3)nc12 (stereo not shown) [LDC4297]
- CC50 [2]: > 10000 nM
- CDK7 intensity (CDK7): 172% ± 7%
- mean replication (in % solvent control) (HCMV AD169-GFP [3]; 0.003 µM): 85%
- mean replication (in % solvent control) (HCMV AD169-GFP [3]; 0.025 µM): 32%
- mean replication (in % solvent control) (HCMV AD169-GFP [3]; 0.1 µM): 4%
- mean replication (in % solvent control) (HCMV AD169-GFP [4]; 0.003 µM): 91%
- mean replication (in % solvent control) (HCMV AD169-GFP [4]; 0.025 µM): 23%
- mean replication (in % solvent control) (HCMV AD169-GFP [4]; 0.1 µM): 7%
- EC50 (HCMV AD169-GFP [5]; parental HCMV AD169-GFP, in parallel with ΔUL97 mutant (Figure 5A)): 16 ± 5 nM
- SI (HCMV AD169-GFP [5]; single treatment): >1000
- EC50 (HCMV AD169-GFP [5]; single treatment, HCMV AD169-GFP in HFFs, mean ± SD): 9 ± 2 nM
- HCMV AD169-GFP-specific reporter signal (GFP intensity) (HCMV AD169-GFP [6]): below 25%
- EC50 (HCMV ΔUL97-GFP BAC213; deletion mutant ΔUL97 BAC213 (Figure 5B)): 61 ± 8 nM
- EC50 (HCMV AD169-GFP [7]; read-out: EC50 single drugs, single drug, run beside the combination of the same table section): 13 nM and 9 nM and 16 nM
- EC90 (HCMV AD169-GFP [7]; read-out: EC90 single drugs, single drug, run beside the combination of the same table section): 97 nM and 147 nM and 88 nM and 124 nM

Compound: CC(C)Nc1nc2cc(Cl)c(Cl)cc2n1[C@H]1O[C@@H](CO)[C@H](O)[C@@H]1O [MBV, maribavir]
- CC50 at 7 d [1, 9]: > 100000 nM
- mean replication (in % solvent control) (HCMV AD169-GFP [3]; 0.31 µM): 21%
- mean replication (in % solvent control) (HCMV AD169-GFP [3]; 2.5 µM): 9%
- mean replication (in % solvent control) (HCMV AD169-GFP [3]; 10 µM): 6%
- mean replication (in % solvent control) (HCMV AD169-GFP [4]; 0.31 µM): 20%
- mean replication (in % solvent control) (HCMV AD169-GFP [4]; 2.5 µM): 6%
- mean replication (in % solvent control) (HCMV AD169-GFP [4]; 10 µM): 3%
- EC50 (HCMV AD169-GFP [8]; Human betaherpesvirus 5, AD169, parental HCMV AD169-GFP, in parallel with ΔUL97 mutant (Figure 5A)): 220 ± 260 nM
- EC50 (HCMV AD169-GFP [8]; [10]): 350 ± 420 nM
- SI (HCMV AD169-GFP [5]; single treatment): >250
- HCMV AD169-GFP-specific reporter signal (GFP intensity) (HCMV AD169-GFP [6]): below 25%
- EC50 (HCMV ΔUL97-GFP BAC213; Human betaherpesvirus 5): > 20000 nM

Compound: Cc1c(Br)c(Br)c2c3c1nc(N1CCNCC1)n3CCC2 [SEL120]
- CC50 at 7 d [1, 9]: 5900 ± 3850 nM
- EC50 (HCMV AD169-GFP [8]; [10]): 79 ± 1 nM
- SI (HCMV AD169-GFP [5]; single treatment): 75

Compound: CC(C)(C)c1cnc(CSc2cnc(NC(=O)C3CCN(CC(=O)NCCOCCOCCOCCNc4cccc5c4C(=O)N(C4CCC(=O)NC4=O)C5=O)CC3)s2)o1 (stereo not shown) [THAL-SNS032]
- CC50 at 7 d [1, 9]: 140 ± 60 nM
- EC50 (HCMV AD169-GFP [8]; [10]): 25 ± 2 nM
- SI (HCMV AD169-GFP [5]; single treatment): 6

Compound: CCc1cnn2c(NCc3ccc[n+]([O-])c3)cc(N3CCCC[C@H]3CCO)nc12 [dinaciclib]
- CC50 at 7 d [1]: < 100 nM

Compound: CN1CCC(c2c(O)cc(O)c3c(=O)cc(-c4ccccc4Cl)oc23)C1CO (stereo not shown) [riviciclib]
- CC50 at 7 d [1, 9]: 1600 ± 60 nM

Compound: CC(C)c1cnn2c(NCc3ccccc3)cc(NC[C@H]3CCNC[C@@H]3O)nc12 [samuraciclib]
- CC50 at 7 d ([1]; single treatment, mock-infected HFFs, 7 d, mean ± SD, read-out: CC50): 500 ± 210 nM

Compound: CVT-313
- CC50 [2]: 5570 ± 50 nM

Compound: SY1365
- CC50 [2]: < 100 nM
